The text below walks through data of publication PMC7450492 (Molecular cancer therapeutics, 2020).

Data set [1] can be described thus: PK in mice, i.v. and oral. The class given is in vivo, mouse. The conditions noted are these: prototype formulation, preliminary.
For data set [2], the system named is PI3K isoforms p110α, p110β, p110γ and p110δ. As to the kind of experiment: cell free enzymatic inhibition of PI3K isoforms. The conditions noted are these: in vitro. The class given is biochemical.
Data set [3] has as its system LLC tumor. Kind of data set: LLC tumor with macrophage depletion by anti-CSF1R. The class given is in vivo, mouse. The conditions noted are these: macrophage depleted mice.
In data set [4] the test system is CT26 tumor. As to the kind of experiment: CT26 tumor in NSG or Balb/c mice. The class given is in vivo, mouse.
In data set [5] the test system is LLC tumors. Kind of data set: LLC tumors in Syk^MC-KO mice. The class given is in vivo, mouse.
Data set [6] has as its target Syk (Homo sapiens, UniProt P43405). Kind of data set: cell free enzymatic inhibition of Syk. The class given is biochemical. The conditions noted are these: read-out: Syk inhibitory activity IC50; cell free system.
The subject of data set [7] is immunosuppressive gene expression in MΦ. Kind of data set: immunosuppressive MΦ polarization, gene expression. The class given is cell-based. The conditions noted are these: very low dose, compared to IPI-549 or R488 alone.
In data set [8] the test system is p-AKT. Kind of data set: p-AKT blockade. The conditions noted are these: 10 µM conc. It is filed as cell-based.
Data set [9] can be described thus: metabolic stability. The class given is in vitro ADME.
Data set [10] in a line: solubility in water. The class given is physicochemical.
For data set [11], the system named is T cells. As to the kind of experiment: T cell proliferation ex vivo. The class given is cell-based, mouse.
Data set [12] concerns LLC tumors. Kind of data set: LLC syngeneic tumor in WT mice. The class given is in vivo. The conditions noted are these: for infiltration of CD8+ T cells in LLC tumors: treated LLC tumors.
The test system of data set [13] is B16-OVA tumor. As to the kind of experiment: B16-OVA tumor in C57BL/6 mice. The class given is in vivo, mouse.
Data set [14] deals with LLC cells. Kind of data set: viability of LLC cells. It is filed as cell-based, mouse.

Converted amounts (≈) assume the structure as drawn. “Also recorded” adds a separate entry of the source.

Regarding `Cc1nn(-c2ccnc(Nc3ccc(-c4csc5c(=O)cc(N6CCOCC6)oc45)cc3)n2)cc1CN1CCC1` [SRX3207], in [1] (5mg/kg IV and 15 mg/kg PO), the half-life result was “about 5 hours”. For the same molecule, the bioavailability entry in [1] (oral 15 mg/kg PO vs 5mg/kg IV) is reported as “around 2%”. Besides, in [2], the PI3K inhibitory potency result is given as “acceptable PI3K inhibitory properties”. Also, the “LLC tumor growth, combination with anti-CSF1R (CD115) antibody” value in data set [3] is recorded as “no additive effects”. The “CT26 tumor growth in Balb/c mice” value in [4] (Balb/c mice) is “blocked tumor growth”. In data set [4] (NSG mice), the “CT26 tumor growth in NSG mice” value is on record as “didn’t block”. Besides, the “LLC tumor growth in Syk^MC-KO mice” value in data set [5] is on record as “significantly decreased”. In addition, the IC50 – broadly, the concentration needed to halve the response being measured – in data set [6] came out at 30 nM. In addition, the immunosuppressive gene expression result in data set [7] is on record as “potently blocks”. Further, the p-AKT blockade result in data set [8] is recorded as “able to block”. Besides, the CLint in data set [9] stood at 74 µL/min/mg protein. For the same molecule, in data set [10], the solubility in water was determined as 43 µM (≈ 23.9 µg/mL). The T cell proliferation entry in [11] was “didn’t affect”. Also, the “toxicity in tumor-bearing mice” value in data set [12] (10 mg/kg dose) is given as “without toxicity”. In addition, the “LLC tumor growth and survival” value in [12] (10 mg/kg oral, WT mice, compared to IPI549 and R788 at similar doses) was “blocked tumor growth and increased survival effectively”. Also, in data set [12], the “infiltration of CD8+ T cells in LLC tumors” value is recorded as “increased infiltration”.

Consider `COc1cc(Nc2ncc(F)c(Nc3ccc4c(n3)N(COP(=O)(O)O)C(=O)C(C)(C)O4)n2)cc(OC)c1OC` [R788, Fostamatinib], for which the “LLC tumor growth, combination with anti-CSF1R (CD115) antibody” value in data set [3] was “no additive effects”. Further, the “LLC tumor growth in Syk^MC-KO mice” value in [5] is listed as “didn’t show additive reduction”. In addition, the “OVA specific CD8+ T cells in tumor draining lymph nodes” value in data set [13] (B16-OVA, H-2K^b SIINFEKL tetramers) is on record as “increased”. In addition, the B16-OVA tumor growth result in [13] (C57BL/6 mice, R788 40 mg/kg, anti-PDL1 200µg, 40 mg/kg) was “significantly blocked tumor growth; also recorded: substantially inhibited”. Besides, the “viability of LLC cells” value in [14] is “no effect”. In data set [11], the T cell proliferation entry is “no effect”. The “tumor growth and metastasis” value in data set [12] (LLC, WT mice, 40 mg/kg R788 orally, vs vehicle) is “significantly suppressed”. Further, in [12], the “infiltration of CD8+ T cells in LLC tumors” value was “increased infiltration”.

Take `C[C@H](NC(=O)c1c(N)nn2cccnc12)c1cc2cccc(C#Cc3cnn(C)c3)c2c(=O)n1-c1ccccc1` [IPI549]: the “LLC tumor growth in Syk^MC-KO mice” value in [5] is on record as “significantly decreased”.
